The target in data set [1] is T1, glucosylceramide synthase (GCS) (Canis lupus familiaris, UniProt A0A8I3MXG6).
T1 construct: Madin-Darby canine kidney (MDCK) cell homogenates (120 μg of protein) were incubated; endogenous in cells; host or cells: MDCK (Madin-Darby canine kidney) cell homogenate
T1 sequence (A0A8I3MXG6 1-394): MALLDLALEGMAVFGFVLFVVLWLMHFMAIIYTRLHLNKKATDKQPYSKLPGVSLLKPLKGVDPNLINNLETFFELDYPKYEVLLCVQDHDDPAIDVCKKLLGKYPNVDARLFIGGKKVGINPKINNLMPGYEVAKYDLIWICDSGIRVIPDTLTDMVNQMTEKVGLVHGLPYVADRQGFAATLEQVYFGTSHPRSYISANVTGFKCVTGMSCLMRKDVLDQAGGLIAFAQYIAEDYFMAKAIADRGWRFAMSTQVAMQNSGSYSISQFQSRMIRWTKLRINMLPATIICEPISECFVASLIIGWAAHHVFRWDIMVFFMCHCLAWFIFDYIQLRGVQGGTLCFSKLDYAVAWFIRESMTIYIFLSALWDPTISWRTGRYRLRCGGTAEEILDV
Kind of data set: GCS activity, broken cell (MDCK cell homogenate) assay. It is filed as biochemical, canine. The procedure:
Enzyme activity was measured as described previously (9). Madin-Darby canine kidney (MDCK) cell homogenates (120 μg of protein) were incubated with uridine diphosphate-[^3H]glucose (100,000 cpm) and liposomes consisting of 85 μg of octanoylsphingosine, 570 μg of dioleoylphosphatidylcholine, and 100 μg of sodium sulfatide in a 200 μL reaction mixture and kept for 1 h at 37° C.

The next data set relates to WT-MDCKII cells. Kind of data set: GCS inhibition (GlcCer production) in whole wild-type MDCKII cells. The conditions noted are these: for IC50: Canis lupus familiaris, MDCK-II, 24 h. The data set is classed as cell-based, canine. The procedure:
Parental (WT-)MDCKII cells and MDCKII cells retrovirally transduced with human MDR-1 cDNA were obtained from the Netherlands Cancer Institute. Both cell lines were routinely maintained in medium consisting of Opti-MEM/F 12 (1:1), 5% FBS, 100 U/mL of penicillin, 100 μg/mL streptomycin and […] L-glutamine. MDCKII cells were newly thawed from frozen ampules every two months. Protein levels of MDR1 in MDR1-MDCKII cells were measured monthly, and MDR1-MDCKII cell passages were immediately terminated when a reduction of MDR1 levels was observed by Western blot using anti-human MDR1 monoclonal antibody (Abcam C219).
Stock solutions of water-insoluble glycosphingolipid inhibitors (100 mM) were prepared by dissolving each inhibitor into 100% ethanol as previously described (3). The inhibitor-ethanol solutions then were diluted 50× into 2 mM delipidated bovine serum albumin-phosphate buffered saline solution to make water-soluble glycosphingolipid inhibitor-bovine serum albumin complexes. The inhibitor-bovine serum album complexes were sterile-filtered and stored at −20° C. Prior to use, portions of the inhibitor-bovine serum albumin complexes were further diluted with Opti-F12 to make treatment solutions. Equal amounts of bovine serum albumin and ethanol were added into the control cultures. WT and MDR1-MDCKII cells (5×10^5) were seeded into 10-cm culture dishes containing 10 ml of Opti-F12 with 5% FBS. After 24 hours, the medium was replaced with fresh serum-free Opti-F12 medium, and cells were exposed to candidate GCS inhibitors at concentrations of 0, 1, 3, 10, 30, 100 and 300 nM for 24 hours.
Following inhibitor treatment, whole cellular lipids of wild type and MDR1-MDCKII cells were extracted as previously described in detail (10). Briefly, cells were washed with ice-cold phosphate buffered saline, fixed by methanol, and collected with rubber scraper. Chloroform was then added to yield a theoretical ratio of chloroform:methanol:water at 1:2:0.8 (v/v/v) to form a mono-phase. Cell debris and proteins were removed by centrifugation at 2200×g for 30 min. The supernatants were portioned by adding chloroform and 0.9% NaCl. The lower organic phases containing neutral glycosphingolipids lipids were washed with methanol and 0.9% NaCl, and subjected to base- and acid-hydrolysis (10). A portion of purified glycosphingolipids normalized to 100 nmol of total phospholipids was analyzed by high performance thin layer chromatography. The thin layer chromatography separations were processed twice. The plate pretreated with 1% sodium borate was first developed in a solvent system consisting of chloroform/methanol (98/2, v/v). After air drying, the plate was then developed in a solvent system containing chloroform/methanol/water (70/30/4, v/v/v). The levels of glucosylceramide were detected by charring with 8% cupric sulfate in 8% phosphoric acid, and quantified by densitometric scanning using ImageJ, NIH Image. Image data was analyzed, and the IC50 of each inhibitor was calculated using GraphPad Prism (version 5.03).

For another data set, the target named is T2, MDR1 (Homo sapiens, UniProt P08183).
T2 construct: host or cells: MDCKII (canine kidney) cells retrovirally transduced with human MDR-1 cDNA
Kind of data set: [3H]Vinblastine transport in MDR1-MDCKII cells. The data set is classed as cell-based. The settings on record: for [3H]vinblastine uptake into MDR1-MDCKII cells: 1-100 μM, 2 h, relative to vehicle. The procedure:
MDR1- and WT-MDCKII cells were grown to confluence on Transwell filters (12 well plates) in DMEM+10% FBS. […] Uptake was measured over 2 hours at 37° C. At that time, uptake was stopped by washing each side of the membrane 3× with ice-cold PBS. Vinblastine uptake into the cells, after correction for any remaining adherent extracellular contamination, was calculated as described previously (11). To investigate the effect of experimental drugs on MDR-mediated transport, those compounds were added to the apical chamber (1-100 μM) during vinblastine uptake and the uptake results expressed as a % of that with vehicle alone.

Setting [2] is: inhibition of GlcCer production in whole wild-type MDCKII cells, read-out: WT-MDCK IC50.

This is an account of results in patent US8961959B2, “Glucosylceramide synthase inhibitors and therapeutic methods using the same” (The Regents of the University of Michigan, priority 2011, dated 2015).

Structures are written as SMILES. Entries after “also recorded” stand apart in the source; their conditions may differ. Read-outs that look alike come from different tables or passages of the source.

T2 sequence (P08183 whole entry): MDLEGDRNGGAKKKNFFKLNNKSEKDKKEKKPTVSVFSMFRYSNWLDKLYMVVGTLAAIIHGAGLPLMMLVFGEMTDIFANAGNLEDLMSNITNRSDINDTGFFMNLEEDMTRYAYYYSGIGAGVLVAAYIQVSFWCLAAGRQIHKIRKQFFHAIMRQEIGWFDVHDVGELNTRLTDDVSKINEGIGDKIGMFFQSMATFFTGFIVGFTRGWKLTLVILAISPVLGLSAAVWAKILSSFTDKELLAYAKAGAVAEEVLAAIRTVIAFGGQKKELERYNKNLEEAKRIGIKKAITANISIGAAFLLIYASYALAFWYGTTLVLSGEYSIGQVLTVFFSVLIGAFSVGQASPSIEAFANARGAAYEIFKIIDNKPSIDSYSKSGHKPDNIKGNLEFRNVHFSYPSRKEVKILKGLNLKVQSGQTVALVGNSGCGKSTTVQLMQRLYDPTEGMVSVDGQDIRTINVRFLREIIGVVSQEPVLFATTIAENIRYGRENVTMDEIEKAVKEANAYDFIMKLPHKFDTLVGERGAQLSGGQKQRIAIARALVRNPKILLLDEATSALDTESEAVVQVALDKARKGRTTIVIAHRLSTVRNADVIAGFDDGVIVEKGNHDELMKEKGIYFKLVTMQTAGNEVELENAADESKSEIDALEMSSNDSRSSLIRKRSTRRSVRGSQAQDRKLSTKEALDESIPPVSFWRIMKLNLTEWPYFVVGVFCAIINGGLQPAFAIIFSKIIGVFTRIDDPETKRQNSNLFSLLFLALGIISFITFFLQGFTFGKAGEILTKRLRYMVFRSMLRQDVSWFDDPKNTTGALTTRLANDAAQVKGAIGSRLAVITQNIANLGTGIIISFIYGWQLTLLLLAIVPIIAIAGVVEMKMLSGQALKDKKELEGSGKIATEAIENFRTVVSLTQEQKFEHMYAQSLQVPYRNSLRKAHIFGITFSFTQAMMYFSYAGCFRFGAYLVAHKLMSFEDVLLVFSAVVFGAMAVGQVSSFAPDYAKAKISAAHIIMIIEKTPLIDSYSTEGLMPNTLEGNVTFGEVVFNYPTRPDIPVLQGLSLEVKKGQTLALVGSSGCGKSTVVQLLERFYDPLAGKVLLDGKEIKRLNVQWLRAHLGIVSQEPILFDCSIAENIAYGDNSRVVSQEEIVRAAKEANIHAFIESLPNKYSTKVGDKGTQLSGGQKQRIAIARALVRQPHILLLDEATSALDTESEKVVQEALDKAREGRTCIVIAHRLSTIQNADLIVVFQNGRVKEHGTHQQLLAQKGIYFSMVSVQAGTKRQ

With `O=C(CC1Cc2ccccc2C1)N[C@H](CN1CCCC1)[C@H](O)c1ccc2c(c1)OCCO2` [Compound 3h, 2-(2,3-dihydro-1H-inden-2-yl)-N-((1R,2R)-1-(2,3-dihydrobenzo[b][1,4]dioxin-6-yl)-1-hydroxy-3-(pyrrolidin-1-yl)propan-2-yl)acetamide], the IC50 worked out at 27 nM in data set [1] and 15.3 nM in the data set on WT-MDCKII cells (setting [2]). In data set [1] (in words), the “inhibition of GCS” value was “low nanomolar concentrations”. Further, the “[3H]vinblastine uptake into MDR1-MDCKII cells” value at MDR1 is listed as “no significant dose dependent change”. In addition, the “interaction with / recognition by MDR1” value on MDR1 (assessed by GCS IC50 shift and vinblastine uptake assays) was “little to no apparent recognition by MDR1; also recorded: least interaction with MDR”.

With `CCCCCCCC(=O)N[C@H](CN1CCCC1)[C@H](O)c1ccc2c(c1)OCCO2` [Compound 3a, N-((1R,2R)-1-(2,3-dihydrobenzo-[b][1,4]dioxin-6-yl)-1-hydroxy-3-(pyrrolidin-1-yl)propan-2-yl)octanamide, reference compound], the IC50 in data set [1] stood at 149 nM; in the data set with WT-MDCKII cells (WT-MDCKII cells, read-out: IC50 for reduction in GlcCer levels, WT cells), 13.7 nM; with WT-MDCKII cells (setting [2]), 13.7 nM. Also, the “potency in whole cells versus broken cells” value with WT-MDCKII cells (broken cell IC50 versus whole WT-MDCKII IC50) is around 10 fold. Moreover, on MDR1, the “[3H]vinblastine uptake into MDR1-MDCKII cells” value is “dose-dependent increase”.
